The test system of data set [1] is α-SMA. Description: α-SMA in hepatic tissues detected by immunohistochemistry. The format is in vivo, mouse. Particulars: CCl4-induced hepatic fibrosis mice; gliclazide solution 500 μM intraperitoneal. Here is the method:
The mice are randomly divided into four groups including a, b, c, and d. • a. Normal control group. • b. Model group: mice are intragastrically administered with the CCl4 solution, 0.1 mL/20 g (i.e., 0.1. mL CC14 per 20 g of body weight of mice), twice a week for 8 weeks. • c. CCl4+gliclazide group: mice are intragastrically administered with the CCl4 solution alone, 0.1 mL/20 g, twice a week for 2 weeks; then the mice are given with the gliclazide solution and the CCl4 solution together for 6 weeks; and an administration method of the gliclazide solution is 0.2mL/20g and intraperitoneal injection once a day. • d. Gliclazide group: the gliclazide solution is intraperitoneally injected into mice for 8 weeks; and an administration method of the gliclazide solution is 0.2 mL/20 g and intraperitoneal injection once a day. […] An experimental method is as follows.

For data set [2], the system named is LC3. Briefly: LC3 in hepatic tissues detected by Western blotting. The format is in vivo, mouse. The conditions noted are these: CCl4-induced hepatic fibrosis mice; gliclazide solution 500 μM intraperitoneal. Here is the method:
(§1) The mice are randomly divided into four groups including a, b, c, and d. • a. Normal control group. • b. Model group: mice are intragastrically administered with the CCl4 solution, 0.1 mL/20 g (i.e., 0.1. mL CC14 per 20 g of body weight of mice), twice a week for 8 weeks. • c. CCl4+gliclazide group: mice are intragastrically administered with the CCl4 solution alone, 0.1 mL/20 g, twice a week for 2 weeks; then the mice are given with the gliclazide solution and the CCl4 solution together for 6 weeks; and an administration method of the gliclazide solution is 0.2mL/20g and intraperitoneal injection once a day. • d. Gliclazide group: the gliclazide solution is intraperitoneally injected into mice for 8 weeks; and an administration method of the gliclazide solution is 0.2 mL/20 g and intraperitoneal injection once a day. Experimental materials include mouse hepatic tissues, a tweezer, a scissor, steel balls with a size of 2 millimeters (mm), a magnet, a cell lysis solution, a PBS solution, a bicinchoninic acid (BCA) protein assay kit, non-fat powdered milk, primary antibodies and corresponding secondary antibodies related to α-SMA, LC3, and p62. An experimental method is as follows. […] The optical density (OD) value at 560 nanometers (nm) is measured by using an enzyme-linked immunosorbent assay (ELISA) on the machine to calculate the concentration of the protein. […]

For data set [3], the system named is α-SMA. Description: α-SMA in hepatic tissues detected by Western blotting. Particulars: CCl4-induced hepatic fibrosis mice; gliclazide solution 500 μM intraperitoneal. The format is in vivo, mouse. The method, then:
as §1

Data set [4] concerns CCl4-induced hepatic fibrosis mice. Briefly: CCl4-induced mouse hepatic fibrosis, HE staining and Sirius-red staining of hepatic tissue. The format is in vivo. The conditions noted are these: gliclazide solution 500 μM, C57 mice. The method, then:
Experimental materials include 60 healthy male C57 mice (20-25 g per mouse, purchased from Chongqing […] Biotechnology Co., Ltd.), gavage needles, 1 milliliter (mL) syringes, CCI4 solution, olive oil, and gliclazide solution. An experimental method is as follows. The CCl4 solution is prepared by dissolving CCl4 in the olive oil (a volume ratio of CCl4 to olive oil is 1:4), and the prepared CCl4 solution should be used immediately. The gliclazide solution is prepared by dissolving gliclazide in physiological saline, the concentration of the gliclazide solution is 500 micromoles per liter (μM), and the prepared gliclazide solution should be used immediately. The mice are randomly divided into four groups including a, b, c, and d. • a. Normal control group. • b. Model group: mice are intragastrically administered with the CCl4 solution, 0.1 mL/20 g (i.e., 0.1. mL CC14 per 20 g of body weight of mice), twice a week for 8 weeks. • c. CCl4+gliclazide group: mice are intragastrically administered with the CCl4 solution alone, 0.1 mL/20 g, twice a week for 2 weeks; then the mice are given with the gliclazide solution and the CCl4 solution together for 6 weeks; and an administration method of the gliclazide solution is 0.2mL/20g and intraperitoneal injection once a day. • d. Gliclazide group: the gliclazide solution is intraperitoneally injected into mice for 8 weeks; and an administration method of the gliclazide solution is 0.2 mL/20 g and intraperitoneal injection once a day. The mice are sacrificed at the 2nd, 4th, 6th and 8th weeks of modeling respectively, and one mouse in each group is sacrificed each time. Hepatic samples obtained from the sacrificed mice are taken out and stored in liquid nitrogen at -80 Celsius degrees (° C.), and the other hepatic samples are fixed in paraformaldehyde with a concentration of 4% for 24 hours, then the other hepatic samples are embedding in paraffin. The degrees of severity of hepatic fibrosis are observed by appearance, Sirius-red staining, and hematoxylin-eosin (HE) staining. […]

The test system of data set [5] is α-SMA. Briefly: α-SMA in HSCs added with autophagy agonist rapamycin, Western blotting. The format is cell-based, rat. Particulars: HSCs-T6; gliclazide 100 βM; TGF-β1 10 ng/ml; 48 hours; P<0.05. Here is the method:
Experimental materials include HSCs-T6, rapamycin, a DMEM complete culture medium, cell culture dishes, a cell lysis solution, a PBS solution, a BCA protein assay kit, non-fat powdered milk, primary antibodies and corresponding secondary antibodies related to α-SMA, LC3, and p62.
Experimental method is as follows. First, this experiment is divided into a normal group, a TGF-β1 group, a gliclazide +TGF-β1 group, and a gliclazide +TGF-β1 +rapamycin group. The concentration of the TGF-β1 is 10 ng/ml, the concentration of the gliclazide is 100 βM, and the concentration of the rapamycin is 100 nanomoles per liter (nM). The TGF-β1 is added at the same time as that in the embodiment 5, and rapamycin and gliclazide are added simultaneously. After 48 hours of incubation, the above groups are detected by the BCA protein assay kit and Western blotting.

Data set [6] deals with LC3. Description: LC3 in HSCs detected by Western blotting. It counts as cell-based, rat. The conditions noted are these: HSCs-T6; gliclazide 100 βM; TGF-β1 10 ng/ml; 48 hours. Here is the method:
(§2) Experimental materials include HSCs-T6, a DMEM complete culture medium, cell culture dishes, a cell lysis solution, a PBS solution, a BCA protein assay kit, non-fat powdered milk, primary antibodies and corresponding secondary antibodies related to α-SMA, LC3, and p62. Experimental method is as follows. First, this experiment is divided into a normal group, a TGF-β1 group, a gliclazide +TGF-β1 group, and a gliclazide group. The concentration of the TGF-β1 is 10 ng/ml, and the concentration of the gliclazide is 100 βM. The the HSCs-T6 is cultured by using the cell culture dish, and inoculated, administrated, added with TGF-β1 according to the conditions described in the embodiment 4. After 48 hours, the incubated cells are rinsed by the precooled PBS solution for 3-4 times, and residual PBS liquid is absorbed with a filter paper, 50 μL radioimmune precipitation assay (RIPA) buffer and 0.5 μL (100:1) phenylmethanesulfonyl fluoride (PMSF) with a concentration of 100millimoles per liter (mmol/L) are added in a 50 mL culture flask and placed on ice for 30 minutes. Then, the protein is scraped by a cell scraper from the culture flask and suctioned out into the EP tubes, and centrifuged at 12000 rpm for 30 minutes at 4° C. […] The OD value at 560 nm is measured by using ELISA on the machine to calculate the concentration of the protein. […]

In data set [7] the test system is p62. Briefly: p62 in HSCs detected by Western blotting. It counts as cell-based, rat. Particulars: HSCs-T6; gliclazide 100 βM; TGF-β1 10 ng/ml; 48 hours. The method, then: as §2
For data set [8], the system named is HSCs-T6. Description: HSCs proliferation under co-culture of gliclazide and TGF-β1 detected by CCK8. The format is cell-based, rat. Particulars: TGF-β1 10 ng/mL, 48 hours, P<0.05. Here is the method:
Experimental materials include HSCs-T6, a Dulbecco's modified eagle medium (DMEM) complete culture medium, a 96-well plate, a counting chamber (also referred to as hemocytometer), CCK-8 working solution, and the like. An experimental method is as follows. First, HSCs-T6 are cultured in the DMEM culture medium containing 10% fetal bovine serum, 1% double antibody (penicillin streptomycin solution) and 1% nonessential amino acid (NEAA), and the culture conditions include 37° C. and 5% CO2. The cells are digested by using trypsin for passage cultivation after the cells are converged to 80% to 90%. Next, the cells are inoculated in the plate, specifically, a density of […] cell suspension with a volume of 100 μL is added into each well of the 96-well plate, each group has 6 replicate wells. This experiment is divided into a control group and a TGF-β1 group, TGF-β1+gliclazide (the gliclazide used in this group has different concentrations of 50μM, 100μM, 150μM, and 200μM) medicament groups. After cell attachment, except for the control group and the TGF-β1 group, the other groups are added with gliclazide with the above concentrations respectively, and after 3 hours, TGF-β1 (10 ng/mL) is added to corresponding groups for stimulating HSCs of […]. After 48 hours of incubation, 100 μL mixed solution of “10% CCK8+90% culture medium” is added into each well. Then the incubation is performed at 37° C. for 1˜4 h, a wavelength is set at 450 nm, and an automatic enzyme analyzer is used to read and record absorbance values at the corresponding wavelength. The effects of gliclazide on cell proliferation are detected by CCK8, and the optimal action time and optimal medicament concentration are screened.

For data set [9], the system named is α-SMA. Description: α-SMA in HSCs detected by Western blotting. The format is cell-based, rat. The conditions noted are these: HSCs-T6; gliclazide 100 βM; TGF-β1 10 ng/ml; 48 hours. Here is the method:
as §2

Data set [10] relates to p62. Briefly: p62 in hepatic tissues detected by Western blotting. The format is in vivo, mouse. Particulars: CCl4-induced hepatic fibrosis mice; gliclazide solution 500 μM intraperitoneal. The method, then: as §1
Where [11] appears, read: CCl4+gliclazide group vs model group, 0.2 mL/20 g intraperitoneal once a day for 6 weeks.

For the molecule `Cc1ccc(S(=O)(=O)NC(=O)NN2CC3CCCC3C2)cc1` (centres unmarked) [gliclazide], the “expression of α-SMA in hepatic tissues (immunohistochemistry)” value in data set [1] is listed as “down-regulate”. Also, in [2], the “expression of LC3 in hepatic tissue (Western blotting)” value was “significantly decreases”. In data set [3], the “expression of α-SMA in hepatic tissue (Western blotting)” value was “significantly decreases”. In addition, the “degree of hepatic fibrosis (HE staining)” value in [4] (setting [11]) is “significantly decreased”. The “degree of hepatic tissue injury (HE staining)” value in [4] (setting [11]) is on record as “significantly decreased”. For the same molecule, the “collagen fibers in hepatic tissue (Sirius-red staining)” value in [4] (gliclazide group without CCl4, 0.2 mL/20 g intraperitoneal once a day for 8 weeks) is recorded as “no obvious collagen fibers are observed”. Also, the “protein expression level of α-SMA, gliclazide +TGF-β1 group vs TGF-β1 group” value in [5] is “significantly lower”. In addition, in [6], the “expression of LC3 in HSCs (Western blotting)” value is recorded as “significantly decreases”. Moreover, the “expression level of autophagy substrate p62 in HSCs (Western blotting)” value in data set [7] was “significantly increases”. Moreover, the “proliferation of HSC-T6 induced by TGF-β1 (CCK8)” value in [8] (gliclazide 100 μM), in data set [8] (gliclazide 150 μM) and in data set [8] (gliclazide 200 μM) was “inhibits the proliferation” throughout. For the same molecule, the “expression of α-SMA in HSCs (Western blotting)” value in [9] was “significantly decreases”. Also, the “expression level of autophagy substrate p62 in hepatic tissue (Western blotting)” value in [10] is “significantly increases”.
